Results reported in patent publication US20250176599A1, “FLAVOR COMPOSITION AND FOOD AND BEVERAGE” (TAKASAGO INTERNATIONAL CORPORATION, priority 2021, published 2025).

Columns and labels:
[1] = Sensory evaluation of aqueous solution V containing 1-octen-3-ol 10 ppb: off-flavor intensity and masking component intensity; conditions: average panel score
Method in brief: (§1)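 8 trained panelists; degradant in ion-exchanged water + nootkatone. Off-flavor 0–4, relative (no masker = 4, water = 0); masker flavor 0–4, absolute.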

[2] = Sensory evaluation of aqueous solution VI containing 1,5-octadien-3-ol 10 ppb: off-flavor intensity and masking component intensity; conditions: aqueous solution VI, average panel score
Method in brief: as §1

[3] = Overall conclusion of the sensory evaluation across aqueous solutions I to VI
Method in brief: as §1

[4] = Sensory evaluation of aqueous solution I containing (E)-2-nonenal 1 ppb: off-flavor intensity and masking component intensity; conditions: average panel score
Method in brief: as §1

[5] = Sensory evaluation of aqueous solution III containing 1-octen-3-one 1 ppb: off-flavor intensity and masking component intensity; conditions: average panel score
Method in brief: as §1

[6] = Sensory evaluation of aqueous solution IV containing 1,5-octadien-3-one 100 ppt: off-flavor intensity and masking component intensity; conditions: aqueous solution IV, average panel score
Method in brief: as §1

[7] = Sensory evaluation of aqueous solution II containing (E)-2-octenal 10 ppb: off-flavor intensity and masking component intensity; conditions: average panel score
Method in brief: as §1

With CC(=O)/C(C)=C/C1C(C)=CCCC1(C)C (centres unmarked) [γ-methyl ionone] the “Masking Component Intensity” value ([1]; 0.01 ppt added) was 0.0, the “Off-Flavor Intensity” value ([1]; 0.01 ppt added) was 3.5 and the “Masking Component Intensity” value ([1]; 0.1 ppt added) was 0.4. The “Off-Flavor Intensity” value ([1]; 0.1 ppt added) was 3.3, the “Masking Component Intensity” value ([1]; 1 ppb added) was 2.3 and the “Off-Flavor Intensity” value ([1]; 1 ppb added) was 1.9. The “Masking Component Intensity” value ([1]; 1 ppm added) was 4.0, the “Off-Flavor Intensity” value ([1]; 1 ppm added) was 0.1 and the “Masking Component Intensity” value ([1]; 1 ppt added) was 0.4. For the same compound, the “Off-Flavor Intensity” value ([1]; 1 ppt added) was 3.3, the “Masking Component Intensity” value ([1]; 10 ppb added) was 2.9 and the “Off-Flavor Intensity” value ([1]; 10 ppb added) was 1.5. The “Masking Component Intensity” value ([1]; 10 ppt added) was 1.0, the “Off-Flavor Intensity” value ([1]; 10 ppt added) was 2.6 and the “Masking Component Intensity” value ([1]; 100 ppb added) was 3.8. The “Off-Flavor Intensity” value ([1]; 100 ppb added) was 0.8, the “Masking Component Intensity” value ([1]; 100 ppt added) was 1.4 and the “Off-Flavor Intensity” value ([1]; 100 ppt added) was 2.1. The “Masking Component Intensity” value ([2]; 0.01 ppt added) was 0.4, the “Off-Flavor Intensity” value ([2]; 0.01 ppt added) was 3.1 and the “Masking Component Intensity” value ([2]; 0.1 ppt added) was 0.9. The “Off-Flavor Intensity” value ([2]; 0.1 ppt added) was 3.1, the “Masking Component Intensity” value ([2]; 1 ppb added) was 1.9 and the “Off-Flavor Intensity” value ([2]; 1 ppb added) was 1.9. For the same compound, the “Masking Component Intensity” value ([2]; 1 ppm added) was 4.0, the “Off-Flavor Intensity” value ([2]; 1 ppm added) was 0.5 and the “Masking Component Intensity” value ([2]; 1 ppt added) was 1.0. The “Off-Flavor Intensity” value ([2]; 1 ppt added) was 2.8, the “Masking Component Intensity” value ([2]; 10 ppb added) was 2.8 and the “Off-Flavor Intensity” value ([2]; 10 ppb added) was 1.3. For the same compound, the “Masking Component Intensity” value ([2]; 10 ppt added) was 1.3, the “Off-Flavor Intensity” value ([2]; 10 ppt added) was 2.4 and the “Masking Component Intensity” value ([2]; 100 ppb added) was 3.4. The “Off-Flavor Intensity” value ([2]; 100 ppb added) was 0.9, the “Masking Component Intensity” value ([2]; 100 ppt added) was 1.6 and the “Off-Flavor Intensity” value ([2]; 100 ppt added) was 2.1. For the same compound, the “concentration that masks the off-flavor and does not affect the flavor of the food and/or beverage itself, lower limit” value [3] was at least 1 ppt, the “concentration that masks the off-flavor and does not affect the flavor of the food and/or beverage itself, upper limit” value [3] was at most 10 ppb and the “Masking Component Intensity” value ([4]; 0.01 ppt added) was 0.3. For the same compound, the “Off-Flavor Intensity” value ([4]; 0.01 ppt added) was 3.8, the “Masking Component Intensity” value ([4]; 0.1 ppt added) was 0.6 and the “Off-Flavor Intensity” value ([4]; 0.1 ppt added) was 3.4. For the same compound, the “Masking Component Intensity” value ([4]; 1 ppb added) was 2.0, the “Off-Flavor Intensity” value ([4]; 1 ppb added) was 2.1 and the “Masking Component Intensity” value ([4]; 1 ppm added) was 4.0. For the same compound, the “Off-Flavor Intensity” value ([4]; 1 ppm added) was 0.3, the “Masking Component Intensity” value ([4]; 1 ppt added) was 0.8 and the “Off-Flavor Intensity” value ([4]; 1 ppt added) was 3.1. The “Masking Component Intensity” value ([4]; 10 ppb added) was 2.5, the “Off-Flavor Intensity” value ([4]; 10 ppb added) was 1.6 and the “Masking Component Intensity” value ([4]; 10 ppt added) was 1.1. The “Off-Flavor Intensity” value ([4]; 10 ppt added) was 2.5, the “Masking Component Intensity” value ([4]; 100 ppb added) was 3.5 and the “Off-Flavor Intensity” value ([4]; 100 ppb added) was 1.0. For the same compound, the “Masking Component Intensity” value ([4]; 100 ppt added) was 1.5, the “Off-Flavor Intensity” value ([4]; 100 ppt added) was 2.4 and the “Masking Component Intensity” value ([5]; 0.01 ppt added) was 0.3. For the same compound, the “Off-Flavor Intensity” value ([5]; 0.01 ppt added) was 3.4, the “Masking Component Intensity” value ([5]; 0.1 ppt added) was 0.3 and the “Off-Flavor Intensity” value ([5]; 0.1 ppt added) was 3.3. For the same compound, the “Masking Component Intensity” value ([5]; 1 ppb added) was 1.6, the “Off-Flavor Intensity” value ([5]; 1 ppb added) was 2.0 and the “Masking Component Intensity” value ([5]; 1 ppm added) was 4.0. The “Off-Flavor Intensity” value ([5]; 1 ppm added) was 0.3, the “Masking Component Intensity” value ([5]; 1 ppt added) was 0.4 and the “Off-Flavor Intensity” value ([5]; 1 ppt added) was 3.1. For the same compound, the “Masking Component Intensity” value ([5]; 10 ppb added) was 2.5, the “Off-Flavor Intensity” value ([5]; 10 ppb added) was 1.5 and the “Masking Component Intensity” value ([5]; 10 ppt added) was 0.6. For the same compound, the “Off-Flavor Intensity” value ([5]; 10 ppt added) was 2.8, the “Masking Component Intensity” value ([5]; 100 ppb added) was 3.5 and the “Off-Flavor Intensity” value ([5]; 100 ppb added) was 1.1. For the same compound, the “Masking Component Intensity” value ([5]; 100 ppt added) was 0.9, the “Off-Flavor Intensity” value ([5]; 100 ppt added) was 2.4 and the “Masking Component Intensity” value ([6]; 0.01 ppt added) was 0.0. For the same compound, the “Off-Flavor Intensity” value ([6]; 0.01 ppt added) was 3.8, the “Masking Component Intensity” value ([6]; 0.1 ppt added) was 0.0 and the “Off-Flavor Intensity” value ([6]; 0.1 ppt added) was 3.5. For the same compound, the “Masking Component Intensity” value ([6]; 1 ppb added) was 1.5, the “Off-Flavor Intensity” value ([6]; 1 ppb added) was 2.1 and the “Masking Component Intensity” value ([6]; 1 ppm added) was 4.0. The “Off-Flavor Intensity” value ([6]; 1 ppm added) was 0.6, the “Masking Component Intensity” value ([6]; 1 ppt added) was 0.3 and the “Off-Flavor Intensity” value ([6]; 1 ppt added) was 3.4. For the same compound, the “Masking Component Intensity” value ([6]; 10 ppb added) was 2.3, the “Off-Flavor Intensity” value ([6]; 10 ppb added) was 1.6 and the “Masking Component Intensity” value ([6]; 10 ppt added) was 0.5. For the same compound, the “Off-Flavor Intensity” value ([6]; 10 ppt added) was 3.3, the “Masking Component Intensity” value ([6]; 100 ppb added) was 3.4 and the “Off-Flavor Intensity” value ([6]; 100 ppb added) was 1.0. The “Masking Component Intensity” value ([6]; 100 ppt added) was 0.6, the “Off-Flavor Intensity” value ([6]; 100 ppt added) was 2.8 and the “Masking Component Intensity” value ([7]; 0.01 ppt added) was 0.4. For the same compound, the “Off-Flavor Intensity” value ([7]; 0.01 ppt added) was 3.3, the “Masking Component Intensity” value ([7]; 0.1 ppt added) was 0.5 and the “Off-Flavor Intensity” value ([7]; 0.1 ppt added) was 3.1. For the same compound, the “Masking Component Intensity” value ([7]; 1 ppb added) was 2.1, the “Off-Flavor Intensity” value ([7]; 1 ppb added) was 1.5 and the “Masking Component Intensity” value ([7]; 1 ppm added) was 4.0. The “Off-Flavor Intensity” value ([7]; 1 ppm added) was 0.3, the “Masking Component Intensity” value ([7]; 1 ppt added) was 0.8 and the “Off-Flavor Intensity” value ([7]; 1 ppt added) was 2.8. For the same compound, the “Masking Component Intensity” value ([7]; 10 ppb added) was 2.8, the “Off-Flavor Intensity” value ([7]; 10 ppb added) was 1.1 and the “Masking Component Intensity” value ([7]; 10 ppt added) was 1.3. For the same compound, the “Off-Flavor Intensity” value ([7]; 10 ppt added) was 2.5, the “Masking Component Intensity” value ([7]; 100 ppb added) was 3.8 and the “Off-Flavor Intensity” value ([7]; 100 ppb added) was 0.6. For the same compound, the “Masking Component Intensity” value ([7]; 100 ppt added) was 1.5 and the “Off-Flavor Intensity” value ([7]; 100 ppt added) was 2.0.
